Here are results for two molecules from patent publication US20260007641A1, “PHARMACEUTICAL COMPOSITION FOR TREATING AND RESISTING BLOOD COAGULATION AND USE THEREOF” (CHENGDU SHIBEIKANG BIOMEDICAL TECHNOLOGY CO., LTD., priority 2022, published 2026).

Data set [1] can be described thus: Solubility and BCS classification of compound A. The data set is classed as physicochemical.
The conditions of data set [2]: from Literature 1; cited from earlier work.

`COC(=O)[C@H](c1ccccc1Cl)N1CC[C@@H]2SC(=O)C=C2C1` [Compound A, methyl(S)-2-(2-chlorophenyl)-2-((S)-2-oxo-2,6,7,7a-tetrahydrothiophene [3,2-c]pyridin-5 (4H)-yl)acetate]: the “BCS (Biopharmaceutics Classification System) class” value in data set [1] was “low solubility and high permeability”. For the same molecule, the solubility in acetone result in data set [1] (acetone) is “very slightly soluble”. The solubility in ethanol result in data set [1] (ethanol) is given as “slightly soluble”. Further, in data set [1] (methanol), the solubility in methanol result is “hardly soluble”. The solubility in toluene entry in data set [1] (toluene) is on record as “almost insoluble”. Further, the solubility in water entry in data set [1] (water) was “very slightly soluble”.
As for `COC(=O)[C@H](c1ccccc1Cl)N1CCc2sccc2C1` [clopidogrel], the “share of clopidogrel metabolized to compound A after oral intake” value in data set [2] was 15%.
